Earlier results on 1 molecule are cited in EP3501609A1 (Zentiva K.S., priority 2017, dated 2019).

In the case of `C=CC(=O)N1CCC[C@@H](n2nc(-c3ccc(Oc4ccccc4)cc3)c3c(N)ncnc32)C1` [ibrutinib form A], for the setting “pH 1.2”, the solubility entry is “poorly soluble”. For the same molecule, where the note is “pH range of 4.5-8”, the solubility in water result is recorded as “virtually insoluble”.
